Laboratory results as given in patent US8158623B2, “Heptacyclic compounds and the pharmaceutical uses thereof for preventing and treating diabetes and metabolic syndrome” (Shanghai Institute of Materia Medica Chinese Academy of …, priority 2007, dated 2012).

Assays:
3T3-L1 adipocytes = experiment: Glucose uptake in 3T3-L1 adipocytes (3H-labelled 2-deoxyglucose); assay type: cell-based; conditions: for Glucose uptake, Mean, Compound + Insulin Group (Control Group = 1.000): with insulin, relative to control without insulin; for fold induction at 10 µM: Mus musculus, 3T3-L1, 2 h incubation, read-out: Glucose uptake, Mean, Compound Group (Control Group = 1.000)
Protocol: The effect of the compounds on baseline or insulin-stimulated glucose uptake was evaluated, using the model of glucose uptake in 3T3-L1 adipocytes.
Adipose tissue is the target of glucose metabolism in vivo. The sensitivity for insulin and availability of glucose in adipose tissues are tightly associated with the insulin resistance. The transportation of glucose into adipocytes is a rate-limiting step for the glucose metabolism, and also an important indicator for evaluating the sensitivity for insulin in adipose tissue. 3T3-L1 is a kind of pre-adipocyte, and can become adipocyte after differentiated completely. Therefore, 3T3-L1 is a desirable model for the glucose transport.
Pre-adipocyte, 3T3-L1 was induced to differentiate under certain conditions. After 3T3-L1 differentiated into adipocytes, the compounds of interest with different concentrations and DMSO (used as control) can be added and incubated with the adipocytes for different periods, then the glucose uptake could be determined. For evaluating the ability for a compound to stimulate glucose uptake, the baseline and insulin-induced glucose uptake were determined, and the increase in baseline and insulin-induced glucose uptake upon treatment of the compounds as compared with control group (with 0.1% DMSO) is calculated, based on the ^3H-labelled 2-deoxyglucose inside the cells.
3T3-L1 cells purchased from Karolinska Institute (Sweden) were cultured in DMEM medium containing 10% fetal calf serum at 37° C., under 5% CO2. The cells were passaged every 3-4 days. The cells were inoculated into 12-well plate. Upon confluence, culture medium containing 0.5 mM 3-isobutyl-1-methylxanthine, 0.25 μM dexamethasone and 5 μg/ml insulin was added and cultured for 3 days. Then, the culture medium was replaced by a medium containing 5 μg/ml insulin and further cultured for 3 days. The insulin was removed, and the cells had differentiated completely into mature adipocytes after 2 days which could be used to determine the glucose uptake.
23 compounds chosen by the inventors were added into the culture medium of adipocytes in a dose of 10 μM. After incubation for 2 h, the effect of the compounds on glucose uptake in 3T3-L1 cells was observed. Culture medium without compounds was used as negative control. The control group only supplemented with insulin and the experiment group supplemented with compounds plus insulin were also employed to observe the effect of the compounds on glucose uptake.

[1] = test system: AMP-Activated Protein Kinase (AMPK); experiment: Phosphorylation of AMPK in HepG2 cell (Western blot); assay type: cell-based, Human; conditions: HepG2, 50 uM, 5 minutes, P<0.01 or P<0.05
Protocol: (§1) Human hepatoma carcinoma cell strain (HepG2, purchased from the cell bank of Shanghai Institute of Cell Biology of Chinese Academy) was used. The Human hepatoma carcinoma cells were passaged by 0.1% pancreatin/0.02% EDTA digestion, and cultured in a incubator at 37° C. using MEM culture medium containing 10% FBS, under 5% CO2/95%.
(§2) HepG2 cells were cultured in 6-well plates for 48 hours until 70%-80% confluence. Serum starvation was started by changing medium with MEM containing 0.5% BSA. After starvation for 6 hours, cells were treated with the compounds (final concentration of 50 uM, containing 0.25% DMSO) for 5 minutes. The culture medium was discarded, and cells were harvested and washed for twice with pre-cooled PBS. The washing liquid was discarded, and any residual PBS was blotted dry. DMSO without heptacyclic compounds was used as control.
(§3) Extraction of total cellular protein: 150 μl/well homogenizing buffer (137 mM NaCl, 2.7 mM KCl, 1 mM MgCl2, 0.5 mM Na3VO4, 1% Triton X-100, 10% Glycerol, 20 mM Tris-HCl pH 7.8, 1 ug/ml Leupeptin, 0.2 mM PMSF, 10 mM NaF, 1 ug/ml Aprotinin, 1 mM EDTA, 1 mM DTT, 5 mM Sodium pyrophosphate, 1 mM Benzamidine) was added. Cells were collected into a 1.5 ml centrifuge tube using cell scraper. Cells were homogenized using sonicator (5 W of power) for 2 times (3 seconds per time), and shaken on a shaker for 1 hour. Supernatant (i.e., total cellular protein) was collected by centrifuging at 14000 rpm for 15 min at 4° C., and stored at −70° C. until use. After the protein concentration was determined by Bradford method, the supernatant was formulated as the loading sample with final concentration of 0.6 mg/ml. The whole preparation process was performed at 4° C.
(§4) Protein Electrophoresis: After being treated at 95° C. for 5 min, the loading sample was loaded (15 μg protein/lane). The protein was separated on 7.5% SDS-acrylamide gel for 1-2 hours under the voltage of 80-120 V.
(§5) Electrotransferring the protein and blocking the membrane: After electrophoresis was finished, the protein was transferred to PVDF membrane using semi-dry transferring slot based on 0.8 mA/cm^2 membrane area under the electric current of 80 mA for 2 hours. After that, the membrane was shaken for 2 hours with 7.5% skim milk/TTBS to block the membrane.
(§6) Antigen-antibody reaction: After the blocking process was finished, the membrane was incubated with primary antibody (antibody against phosphorylated ACC (P-ACC) and antibody against phosphorylated AMPK (P-AMPK), all purchased from Cell signaling (USA), with the working concentration of 1:1000) overnight at 4° C. The membrane was removed, and the primary antibody was recovered. The membrane was washed 5 times, each for 10 min in TTBS. The membrane was shaken for 2 hours with the secondary antibody (horseradish peroxidase-conjugated goat-anti-rabbit IgG antibody, purchased from Bio-rad (USA), with the working concentration of 1:5000) at room temperature. The secondary antibody was discarded. The membrane was washed 5 times, each for 10 min in TTBS in order to remove the unbound secondary antibody.
(§7) ECL exposure and development: Luminescent agents, ECL 1, 2, were mixed homogeneously, and incubated with the membrane for 3-5 min. The membrane was removed, wrapped in preservative film, and transferred into dark room for exposure. After exposure with X-film, the film was developed, washed, recorded and conserved.
(§8) Semi-quantitative analysis was performed through optical density scan using computer image analysis system. Grey level of the protein expression was calculated. The target grey level was divided by the grey level of internal standard, and a histogram was plotted, taking the normal group as 1 unit.

[2] = test system: Acetyl CoA Carboxylase (ACC); experiment: Phosphorylation of ACC in HepG2 cell (Western blot); assay type: cell-based, Human; conditions: HepG2, 50 uM, 5 minutes, P<0.01 or P<0.05
Protocol: as §1, §2, §3, §4, §5, §6, §7, §8

[3] = baseline (without insulin), relative to control

O=C1Oc2ccccc2Oc2ccccc21 [AA0, Dibenzo[b,e][1,4]dioxepin-11-one]
Glucose uptake, Mean, Compound + Insulin Group (Control Group = 1.000) (3T3-L1 adipocytes; 10 μM, 2 h incubation): 2.130 | fold induction at 10 µM (3T3-L1 adipocytes; [3]): 1.12

CCCOC(=O)c1cc(OC)c(C)c2c1Oc1c(CNc3ccc(S(N)(=O)=O)cc3)c(O)cc(C)c1C(=O)O2 [AA5, 3-Hydroxy-8-methoxy-1,9-dimethyl-11-oxo-4-[(4-sulfamoyl-phenylamino)-methyl]-11H-dibenzo[b,e][1,4]dioxepine-6-carboxylic acid propyl ester]
Level of phosphorylation for AMPK protein versus DMSO control [1]: increased significantly

CCCOC(=O)c1cc(OC)c(C)c2c1Oc1c(CNCCN3CCOCC3)c(O)cc(C)c1C(=O)O2 [AA6, 3-Hydroxy-8-methoxy-1,9-dimethyl-4-[(2-morpholin-4-yl-ethylamino)-methyl]-11-oxo-11H-dibenzo[b,e][1,4]dioxepine-6-carboxylic acid propyl ester]
Level of phosphorylation for ACC protein versus DMSO control [2]: improved significantly | Level of phosphorylation for AMPK protein versus DMSO control [1]: increased significantly

COc1cc(C(=O)O)c2c(c1C)OC(=O)c1c(C)cc(O)c(CNc3ccc(F)cc3)c1O2 [AA7, 4-[(4-Fluoro-phenylamino)-methyl]-3-hydroxy-8-methoxy-1,9-dimethyl-11-oxo-11H-dibenzo[b,e][1,4]dioxepine-6-carboxylic acid]
Glucose uptake, Mean, Compound + Insulin Group (Control Group = 1.000) (3T3-L1 adipocytes; 10 μM, 2 h incubation): 1.786 | fold induction at 10 µM (3T3-L1 adipocytes; [3]): 1.13 | Level of phosphorylation for ACC protein versus DMSO control [2]: improved significantly

CNC(=O)c1cc(OC)c(C)c2c1Oc1c(C=O)c(O)cc(C)c1C(=O)O2 [AB2, 4-Formyl-3-hydroxy-8-methoxy-1,9-dimethyl-11-oxo-11H-dibenzo[b,e][1,4]dioxepine-6-carboxylic acid methylamide]
Glucose uptake, Mean, Compound + Insulin Group (Control Group = 1.000) (3T3-L1 adipocytes; 10 μM, 2 h incubation): 1.639 | fold induction at 10 µM (3T3-L1 adipocytes; [3]): 1.18

CCNC(=O)c1cc(OC)c(C)c2c1Oc1c(C=O)c(O)cc(C)c1C(=O)O2 [AB4, 4-Formyl-3-hydroxy-8-methoxy-1,9-dimethyl-11-oxo-11H-dibenzo[b,e][1,4]dioxepine-6-carboxylic acid ethylamide]
Glucose uptake, Mean, Compound + Insulin Group (Control Group = 1.000) (3T3-L1 adipocytes; 10 μM, 2 h incubation): 1.837 | fold induction at 10 µM (3T3-L1 adipocytes; [3]): 1.11

COc1cc(C(=O)Nc2ccc(S(N)(=O)=O)cc2)c2c(c1C)OC(=O)c1c(C)cc(O)c(C=Nc3ccc(S(N)(=O)=O)cc3)c1O2 [AB9, 3-Hydroxy-8-methoxy-1,9-dimethyl-11-oxo-4-[(4-sulfamoylphenyl)-iminomethyl]-11H-dibenzo[b,e][1,4]dioxepine-6-[carboxy-(4-sulfamoyl)phenylamide]]
Glucose uptake, Mean, Compound Group (Control Group = 1.000) (3T3-L1 adipocytes; 10 μM, 2 h incubation, baseline (without insulin), relative to control): 1.150 | Glucose uptake, Mean, Compound + Insulin Group (Control Group = 1.000) (3T3-L1 adipocytes; 10 μM, 2 h incubation): 1.555

COc1ccc2c(c1)NC(=O)c1cc(Cl)c(O)cc1N2 [BT5, 2-Chloro-3-hydroxy-8-methoxy-5,10-dihydro-dibenzo[b,e][1,4]diazepin-11-one]
Glucose uptake, Mean, Compound + Insulin Group (Control Group = 1.000) (3T3-L1 adipocytes; 10 μM, 2 h incubation): 1.728 | fold induction at 10 µM (3T3-L1 adipocytes; [3]): 1.23 | Level of phosphorylation for ACC protein versus DMSO control [2]: improved significantly

Cc1cc2c(c(C(=O)O)c1)Nc1ncccc1C(=O)N2 [BT7, 8-Methyl-5-oxo-6,11-dihydro-5H-benzo[b]pyrido[2,3-e][1,4]diazepine-10-carboxylic acid]
Level of phosphorylation for ACC protein versus DMSO control [2]: improved significantly | Level of phosphorylation for AMPK protein versus DMSO control [1]: increased significantly

COc1cnc2c(c1)NC(=O)c1ccc(O)c(C=O)c1N2 [BU0, 9-Hydroxy-3-methoxy-6-oxo-6,11-dihydro-5H-benzo[e]pyrido[3,2-b][1,4]diazepine-10-carbaldehyde]
Glucose uptake, Mean, Compound + Insulin Group (Control Group = 1.000) (3T3-L1 adipocytes; 10 μM, 2 h incubation): 2.147 | fold induction at 10 µM (3T3-L1 adipocytes; [3]): 1.43 | Level of phosphorylation for AMPK protein versus DMSO control [1]: increased significantly

COC(=O)c1cc(OC)c(C)c2c1Oc1c(C=O)c(O)cc(C)c1C(=O)O2 [Compound A0, 4-Formyl-3-hydroxy-8-methoxy-1,9-dimethyl-11-oxo-11H-dibenzo[b,e][1,4]dioxepine-6-carboxylic acid methyl ester]
Glucose uptake, Mean, Compound + Insulin Group (Control Group = 1.000) (3T3-L1 adipocytes; 10 μM, 2 h incubation): 2.710 | fold induction at 10 µM (3T3-L1 adipocytes; [3]): 1.33 | Level of phosphorylation for ACC protein versus DMSO control [2]: improved significantly

CCCCOC(=O)c1cc(OC)c(C)c2c1Oc1c(C=O)c(O)cc(C)c1C(=O)O2 [Compound A6, 4-Formyl-3-hydroxy-8-methoxy-1,9-dimethyl-11-oxo-11H-dibenzo[b,e][1,4]dioxepine-6-carboxylic acid butyl ester]
Level of phosphorylation for ACC protein versus DMSO control [2]: improved significantly | Level of phosphorylation for AMPK protein versus DMSO control [1]: significant up-regulation

COc1cc(C(=O)O)c2c(c1C)OC(=O)c1c(C)cc(O)c(CN3CCNCC3)c1O2 [Compound D1, 3-Hydroxy-8-methoxy-1,9-dimethyl-11-oxo-4-(piperazin-1-ylmethyl)-11H-dibenzo[b,e][1,4]dioxepine-6-carboxylic acid]
Glucose uptake, Mean, Compound + Insulin Group (Control Group = 1.000) (3T3-L1 adipocytes; 10 μM, 2 h incubation): 3.673 | fold induction at 10 µM (3T3-L1 adipocytes; [3]): 1.28 | Level of phosphorylation for AMPK protein versus DMSO control [1]: increased significantly

COc1cc(C(=O)O)c2c(c1C)OC(=O)c1c(C)cc(O)c(CNC(C)(C)C)c1O2 [Compound D3, 4-(tert-Butylamino-methyl)-3-hydroxy-8-methoxy-1,9-dimethyl-11-oxo-11H-dibenzo[b,e][1,4]dioxepine-6-carboxylic acid]
Glucose uptake, Mean, Compound + Insulin Group (Control Group = 1.000) (3T3-L1 adipocytes; 10 μM, 2 h incubation): 3.001 | fold induction at 10 µM (3T3-L1 adipocytes; [3]): 1.12

COc1cc(C(=O)O)c2c(c1C)OC(=O)c1c(C)cc(O)c(CN3CCN(Cc4ccccc4)CC3)c1O2 [Compound D4, 4-(4-Benzyl-piperazin-1-ylmethyl)-3-hydroxy-8-methoxy-1,9-dimethyl-11-oxo-11H-dibenzo[b,e][1,4]dioxepine-6-carboxylic acid]
Glucose uptake, Mean, Compound + Insulin Group (Control Group = 1.000) (3T3-L1 adipocytes; 10 μM, 2 h incubation): 3.717 | fold induction at 10 µM (3T3-L1 adipocytes; [3]): 1.19

COc1cc(C(=O)O)c2c(c1C)OC(=O)c1c(C)cc(O)c(CNc3ccc(NC(C)=O)cc3)c1O2 [Compound D8, 4-[(4-Acetylamino-phenylamino)-methyl]-3-hydroxy-8-methoxy-1,9-dimethyl-11-oxo-11H-dibenzo[b,e][1,4]dioxepine-6-carboxylic acid]
Glucose uptake, Mean, Compound + Insulin Group (Control Group = 1.000) (3T3-L1 adipocytes; 10 μM, 2 h incubation): 3.877 | fold induction at 10 µM (3T3-L1 adipocytes; [3]): 1.21 | Level of phosphorylation for ACC protein versus DMSO control [2]: improved significantly
